In US11242312B2, “Dipeptidyl ketoamide meta-methoxyphenyl derivatives and uses thereof” (LANDSTEINER GENMED, S.L., priority 2018, dated 2022):

Biological target: calpain 1 (Homo sapiens (Human), UniProt P07384)
Assay: Assay for the determination of the capacity to inhibit calpain 1 (Calpain-Glo Protease kit)
Type: biochemical
Conditions: Calpain-Glo luminescence; 16 ng/mL calpain 1; at least 6 concentrations; read-out: Calpain 1 inhibitory activity IC50
Protocol: Assay for the Determination of the Capacity to Inhibit Calpain 1
Activity of Calpain 1 was measured by using Calpain-Glo Protease kit from Promega. Assays were run in 384-well black plates with clear bottom. 5 μl of compounds in a 10 mM HEPES and 1 mM EDTA aqueous solution were incubated with 15 μL of a solution of 16 ng/mL calpain 1 (Sigma Aldrich) for 2 minutes and then 20 μL of Calpain-Glo™ Reagent provided in the kit were added to each well. Luminiscence elicited by calpain 1-induced substrate lysis was measured in a Hamamatsu FDSS 7000 reader and data was calculated from the maximal luminescence peak. Calpain inhibition was calculated from the formula: % inhibition=[…]; wherein LT is the luminescence observed in the tested compound, LB is blank luminescence obtained from a well without calpain 1 and LC is the luminescence observed in control wells including calpain1 in the absence of inhibitor.
All compounds were tested using, at least, 6 concentrations to allow calculate the IC50 (concentration that inhibits the activity of calpain 1 by 50%).
Calpastatin and ALLN were included as control inhibitors in all the assays.

Chain of calpain 1 (P07384 whole entry): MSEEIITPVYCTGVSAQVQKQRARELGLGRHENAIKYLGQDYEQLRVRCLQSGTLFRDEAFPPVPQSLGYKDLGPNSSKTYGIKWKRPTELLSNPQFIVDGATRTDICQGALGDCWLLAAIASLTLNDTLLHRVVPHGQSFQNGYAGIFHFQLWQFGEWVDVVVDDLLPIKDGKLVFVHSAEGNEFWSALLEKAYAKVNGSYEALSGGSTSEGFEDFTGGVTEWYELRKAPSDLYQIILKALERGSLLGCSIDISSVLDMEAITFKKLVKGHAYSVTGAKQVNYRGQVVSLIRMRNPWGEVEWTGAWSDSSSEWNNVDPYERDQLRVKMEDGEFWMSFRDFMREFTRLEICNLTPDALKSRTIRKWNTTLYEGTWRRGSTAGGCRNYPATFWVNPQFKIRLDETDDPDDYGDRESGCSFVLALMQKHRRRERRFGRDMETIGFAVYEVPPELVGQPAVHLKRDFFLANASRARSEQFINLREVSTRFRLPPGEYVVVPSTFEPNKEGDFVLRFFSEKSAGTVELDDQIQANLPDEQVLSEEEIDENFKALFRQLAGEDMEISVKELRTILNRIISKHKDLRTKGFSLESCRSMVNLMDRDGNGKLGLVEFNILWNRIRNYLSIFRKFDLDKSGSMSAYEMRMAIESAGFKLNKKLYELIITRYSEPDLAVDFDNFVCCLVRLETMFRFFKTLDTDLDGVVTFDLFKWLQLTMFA
Chain of calpain 1 (P04632 whole entry partner): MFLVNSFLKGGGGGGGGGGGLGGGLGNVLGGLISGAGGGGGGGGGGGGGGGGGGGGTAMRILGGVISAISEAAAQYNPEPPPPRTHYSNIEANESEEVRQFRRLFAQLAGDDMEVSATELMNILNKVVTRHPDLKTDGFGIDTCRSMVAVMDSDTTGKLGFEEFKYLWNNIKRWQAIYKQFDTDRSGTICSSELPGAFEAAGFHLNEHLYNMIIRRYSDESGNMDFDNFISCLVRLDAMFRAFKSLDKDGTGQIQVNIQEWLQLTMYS

Row | IC50 | SMILES
1 | 255 nM | COc1ccc(C(=O)N[C@@H](CC(C)C)C(=O)N[C@@H](Cc2ccccc2)C(=O)C(=O)NC2CC2)cc1 [Comp. Example 5, N-((S)-1-(((S)-4-(cyclopropylamino)-3,4-dioxo-1-phenylbutan-2-yl)amino)-4-methyl-1-oxopentan-2-yl)-4-methoxybenzamide, reference compound]
2 | 110 nM | COc1ccccc1C(=O)N[C@@H](CC(C)C)C(=O)N[C@@H](Cc1ccccc1)C(=O)C(=O)NC1CC1 [Comp. Example 6, N-((S)-1-(((S)-4-(cyclopropylamino)-3,4-dioxo-1-phenylbutan-2-yl)amino)-4-methyl-1-oxopentan-2-yl)-2-methoxybenzamide, reference compound]
3 | 0.03 nM | COc1cccc(C(=O)N[C@@H](CC(C)C)C(=O)N[C@@H](Cc2ccccc2)C(=O)C(=O)NC2CC2)c1 [Example 1, N-((S)-1-(((S)-4-(cyclopropylamino)-3,4-dioxo-1-phenylbutan-2-yl)amino)-4-methyl-1-oxopentan-2-yl)-3-methoxybenzamide]
4 | 2.2 nM | COc1cccc(C(=O)N[C@H](C(=O)NC(Cc2ccccc2)C(=O)C(=O)NC2CC2)C(C)C)c1 (stereo partly drawn) [Example 2, N-((S)-1-((4-(cyclopropylamino)-3,4-dioxo-1-phenylbutan-2-yl)amino)-3-methyl-1-oxobutan-2-yl)-3-methoxybenzamide]
5 | 0.008 nM | COc1cccc(C(=O)N[C@@H](CC2CC2)C(=O)NC(Cc2ccccc2)C(=O)C(=O)NC2CC2)c1 (stereo partly drawn) [Example 3, N-((S)-3-cyclopropyl-1-((4-(cyclopropylamino)-3,4-dioxo-1-phenylbutan-2-yl)amino)-1-oxopropan-2-yl)-3-methoxybenzamide]
6 | 7.1 nM | CONC(=O)C(=O)C(Cc1ccccc1)NC(=O)[C@H](CC1CC1)NC(=O)c1cccc(OC)c1 (stereo partly drawn) [Example 4, N-((S)-3-cyclopropyl-1-((4-(methoxyamino)-3,4-dioxo-1-phenylbutan-2-yl)amino)-1-oxopropan-2-yl)-3-methoxybenzamide]
